Data as given in ChEMBL document CHEMBL5465560, “Selectivity Literature for EUbOPEN Chemogenomic Library” (2024).

How the values were obtained:
[1] = molecular target: Tyrosine-protein kinase ABL1 (Homo sapiens, UniProt P00519); assay: Selectivity interaction (ActivX KiNativ screen (kinase selectivity in THP-1 cell lysates)) EUB0000639a ABL1; type: subcellular; conditions: lysate
[2] = molecular target: Mitogen-activated protein kinase 1 (Homo sapiens, UniProt P28482); assay: Selectivity interaction (ActivX KiNativ screen (kinase selectivity in THP-1 cell lysates)) EUB0000639a MAPK1; type: subcellular; conditions: lysate
Mitogen-activated protein kinase 1, sequence (P28482 whole entry): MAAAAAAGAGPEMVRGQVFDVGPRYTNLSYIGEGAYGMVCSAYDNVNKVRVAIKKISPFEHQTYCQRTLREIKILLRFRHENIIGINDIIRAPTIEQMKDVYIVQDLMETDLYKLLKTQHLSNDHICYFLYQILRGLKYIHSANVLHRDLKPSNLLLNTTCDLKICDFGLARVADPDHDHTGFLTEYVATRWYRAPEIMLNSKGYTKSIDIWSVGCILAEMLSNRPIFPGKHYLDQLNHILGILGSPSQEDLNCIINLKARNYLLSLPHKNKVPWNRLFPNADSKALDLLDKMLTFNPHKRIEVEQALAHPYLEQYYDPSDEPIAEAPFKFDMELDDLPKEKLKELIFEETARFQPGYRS

Ephrin type-B receptor 4 = Ephrin type-B receptor 4 (Homo sapiens, UniProt P54760); assay: Selectivity interaction (Kinase panel (33PanQinase(R) Activity Assay)) EUB0000877a EPHB4
Ephrin type-B receptor 4, sequence (P54760 whole entry, the tested form may be a part): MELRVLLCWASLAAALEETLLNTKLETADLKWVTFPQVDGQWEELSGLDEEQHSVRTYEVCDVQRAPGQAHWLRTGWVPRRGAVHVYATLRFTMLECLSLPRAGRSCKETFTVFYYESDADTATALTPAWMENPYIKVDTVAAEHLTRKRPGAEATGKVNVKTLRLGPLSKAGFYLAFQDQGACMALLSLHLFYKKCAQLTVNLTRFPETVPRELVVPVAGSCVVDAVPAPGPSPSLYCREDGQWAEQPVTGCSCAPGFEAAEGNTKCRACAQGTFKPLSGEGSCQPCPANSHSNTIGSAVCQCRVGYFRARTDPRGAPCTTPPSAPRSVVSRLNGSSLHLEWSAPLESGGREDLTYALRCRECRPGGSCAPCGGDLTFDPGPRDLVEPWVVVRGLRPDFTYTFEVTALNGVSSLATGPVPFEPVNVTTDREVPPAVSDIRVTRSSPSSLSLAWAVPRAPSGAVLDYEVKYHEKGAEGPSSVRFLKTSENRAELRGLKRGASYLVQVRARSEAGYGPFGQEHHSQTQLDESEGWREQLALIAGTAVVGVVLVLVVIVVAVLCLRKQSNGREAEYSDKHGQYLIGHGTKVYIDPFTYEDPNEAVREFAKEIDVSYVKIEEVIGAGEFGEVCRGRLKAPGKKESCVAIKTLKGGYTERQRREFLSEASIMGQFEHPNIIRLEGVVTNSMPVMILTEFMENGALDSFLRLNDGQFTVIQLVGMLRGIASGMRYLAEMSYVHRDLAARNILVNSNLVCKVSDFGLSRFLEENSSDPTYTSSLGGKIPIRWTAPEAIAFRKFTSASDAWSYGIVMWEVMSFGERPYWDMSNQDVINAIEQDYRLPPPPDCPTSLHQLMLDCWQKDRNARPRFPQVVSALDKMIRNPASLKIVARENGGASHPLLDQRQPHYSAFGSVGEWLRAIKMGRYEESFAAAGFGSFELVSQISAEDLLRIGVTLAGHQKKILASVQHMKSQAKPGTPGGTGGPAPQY

[3] = molecular target: T1, Phosphatidylinositol 3-kinase C2 domain-containing subunit gamma (Homo sapiens) (UniProt O75747); assay: Selectivity interaction (Adapta Assay) EUB0001632a PIK3C2G; conditions: at 10 µM
T1 sequence (whole entry): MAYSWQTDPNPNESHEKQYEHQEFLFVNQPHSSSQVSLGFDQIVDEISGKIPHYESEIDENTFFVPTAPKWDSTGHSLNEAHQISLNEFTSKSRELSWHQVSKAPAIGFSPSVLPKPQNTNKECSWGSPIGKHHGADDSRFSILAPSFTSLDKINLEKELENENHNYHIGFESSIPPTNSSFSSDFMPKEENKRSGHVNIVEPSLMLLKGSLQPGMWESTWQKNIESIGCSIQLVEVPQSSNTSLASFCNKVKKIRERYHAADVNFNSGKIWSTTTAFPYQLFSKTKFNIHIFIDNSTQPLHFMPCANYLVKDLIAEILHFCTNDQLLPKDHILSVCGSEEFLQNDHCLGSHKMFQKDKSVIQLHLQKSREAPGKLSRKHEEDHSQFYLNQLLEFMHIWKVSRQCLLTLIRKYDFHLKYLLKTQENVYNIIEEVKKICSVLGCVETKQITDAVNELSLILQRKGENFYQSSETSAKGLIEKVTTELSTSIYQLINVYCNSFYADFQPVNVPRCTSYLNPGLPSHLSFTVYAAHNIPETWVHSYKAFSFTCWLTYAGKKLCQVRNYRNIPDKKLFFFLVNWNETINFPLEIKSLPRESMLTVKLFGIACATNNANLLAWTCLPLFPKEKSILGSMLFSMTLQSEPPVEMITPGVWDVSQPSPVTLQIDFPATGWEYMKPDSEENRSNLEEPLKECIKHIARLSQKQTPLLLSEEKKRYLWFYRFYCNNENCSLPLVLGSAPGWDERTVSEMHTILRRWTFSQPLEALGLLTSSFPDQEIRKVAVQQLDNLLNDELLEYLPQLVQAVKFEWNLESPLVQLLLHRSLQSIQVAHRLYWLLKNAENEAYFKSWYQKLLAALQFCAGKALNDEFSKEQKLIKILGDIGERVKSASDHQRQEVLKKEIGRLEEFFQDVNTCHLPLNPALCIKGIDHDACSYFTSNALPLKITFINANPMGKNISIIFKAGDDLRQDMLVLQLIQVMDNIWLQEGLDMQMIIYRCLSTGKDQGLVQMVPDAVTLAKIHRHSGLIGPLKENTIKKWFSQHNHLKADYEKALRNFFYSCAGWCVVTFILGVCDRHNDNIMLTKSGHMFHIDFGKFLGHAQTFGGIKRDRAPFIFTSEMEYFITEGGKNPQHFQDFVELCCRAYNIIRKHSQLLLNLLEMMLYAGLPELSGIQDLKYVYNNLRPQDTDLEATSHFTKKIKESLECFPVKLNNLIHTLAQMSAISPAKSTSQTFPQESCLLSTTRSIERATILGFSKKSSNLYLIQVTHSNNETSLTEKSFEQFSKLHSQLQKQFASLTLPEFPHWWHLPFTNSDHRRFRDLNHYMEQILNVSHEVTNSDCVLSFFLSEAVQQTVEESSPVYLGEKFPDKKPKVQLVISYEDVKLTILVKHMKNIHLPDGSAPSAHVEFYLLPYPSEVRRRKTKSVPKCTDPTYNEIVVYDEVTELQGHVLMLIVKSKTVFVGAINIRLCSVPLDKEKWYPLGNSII

[4] = molecular target: Rho-associated protein kinase 2 (Homo sapiens, UniProt O75116); assay: Selectivity interaction (KinomeScan (DiscoverX)) EUB0000229b ROCK2; conditions: at 10 µM
Rho-associated protein kinase 2, sequence (O75116 whole entry, looked up): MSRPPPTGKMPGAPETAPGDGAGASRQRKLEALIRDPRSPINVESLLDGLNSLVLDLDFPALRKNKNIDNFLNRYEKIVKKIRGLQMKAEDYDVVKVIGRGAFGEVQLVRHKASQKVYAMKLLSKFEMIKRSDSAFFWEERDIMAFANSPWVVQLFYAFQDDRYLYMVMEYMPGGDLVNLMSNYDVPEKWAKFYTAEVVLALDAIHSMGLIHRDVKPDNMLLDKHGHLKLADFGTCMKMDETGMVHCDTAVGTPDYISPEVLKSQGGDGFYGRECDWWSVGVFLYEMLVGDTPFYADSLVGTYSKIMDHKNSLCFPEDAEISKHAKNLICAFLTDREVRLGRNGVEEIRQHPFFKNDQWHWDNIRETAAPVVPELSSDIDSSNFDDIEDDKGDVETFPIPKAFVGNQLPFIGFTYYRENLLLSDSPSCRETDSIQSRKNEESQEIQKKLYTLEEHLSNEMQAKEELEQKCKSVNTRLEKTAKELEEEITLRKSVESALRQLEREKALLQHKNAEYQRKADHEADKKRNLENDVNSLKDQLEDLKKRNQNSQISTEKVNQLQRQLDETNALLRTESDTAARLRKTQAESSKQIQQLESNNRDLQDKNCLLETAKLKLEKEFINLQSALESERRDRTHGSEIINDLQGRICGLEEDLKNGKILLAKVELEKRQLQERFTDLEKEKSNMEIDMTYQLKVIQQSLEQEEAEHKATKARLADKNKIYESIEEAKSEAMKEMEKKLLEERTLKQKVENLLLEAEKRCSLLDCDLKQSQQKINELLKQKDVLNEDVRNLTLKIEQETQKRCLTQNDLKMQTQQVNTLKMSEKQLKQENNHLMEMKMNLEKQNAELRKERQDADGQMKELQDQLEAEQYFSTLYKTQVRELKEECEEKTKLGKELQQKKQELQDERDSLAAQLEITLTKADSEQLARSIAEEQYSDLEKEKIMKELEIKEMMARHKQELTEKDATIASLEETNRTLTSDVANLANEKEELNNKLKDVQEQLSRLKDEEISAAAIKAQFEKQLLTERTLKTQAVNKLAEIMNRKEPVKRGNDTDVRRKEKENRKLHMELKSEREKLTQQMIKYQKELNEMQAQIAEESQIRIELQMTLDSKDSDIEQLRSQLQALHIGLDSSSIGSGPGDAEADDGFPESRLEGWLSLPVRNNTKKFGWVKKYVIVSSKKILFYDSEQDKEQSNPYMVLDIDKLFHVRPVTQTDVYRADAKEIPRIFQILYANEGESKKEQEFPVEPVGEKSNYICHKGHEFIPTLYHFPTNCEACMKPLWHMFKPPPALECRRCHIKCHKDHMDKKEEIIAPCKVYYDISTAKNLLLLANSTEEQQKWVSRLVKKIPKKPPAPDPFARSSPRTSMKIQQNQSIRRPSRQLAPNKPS

[5] = molecular target: T2, Dual specificity mitogen-activated protein kinase kinase 3 (Homo sapiens) (UniProt P46734); assay: Selectivity interaction (KinomeScan (DiscoverX)) EUB0001079a MAP2K3; conditions: at 1 µM
T2 sequence (whole entry): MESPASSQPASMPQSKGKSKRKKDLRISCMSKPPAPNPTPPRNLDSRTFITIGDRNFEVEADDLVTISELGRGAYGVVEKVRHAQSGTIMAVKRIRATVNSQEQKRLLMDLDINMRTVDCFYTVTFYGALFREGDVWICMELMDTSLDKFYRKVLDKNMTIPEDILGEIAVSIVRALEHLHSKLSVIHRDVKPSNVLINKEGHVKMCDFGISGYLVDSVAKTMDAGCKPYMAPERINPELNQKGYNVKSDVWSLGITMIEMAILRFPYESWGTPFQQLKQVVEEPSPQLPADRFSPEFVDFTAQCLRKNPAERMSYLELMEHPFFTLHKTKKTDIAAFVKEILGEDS

[6] = molecular target: Dual specificity mitogen-activated protein kinase kinase 1 (Homo sapiens, UniProt Q02750); assay: Selectivity interaction (ProQinase) EUB0000171b MAP2K1
Dual specificity mitogen-activated protein kinase kinase 1, sequence (Q02750 whole entry): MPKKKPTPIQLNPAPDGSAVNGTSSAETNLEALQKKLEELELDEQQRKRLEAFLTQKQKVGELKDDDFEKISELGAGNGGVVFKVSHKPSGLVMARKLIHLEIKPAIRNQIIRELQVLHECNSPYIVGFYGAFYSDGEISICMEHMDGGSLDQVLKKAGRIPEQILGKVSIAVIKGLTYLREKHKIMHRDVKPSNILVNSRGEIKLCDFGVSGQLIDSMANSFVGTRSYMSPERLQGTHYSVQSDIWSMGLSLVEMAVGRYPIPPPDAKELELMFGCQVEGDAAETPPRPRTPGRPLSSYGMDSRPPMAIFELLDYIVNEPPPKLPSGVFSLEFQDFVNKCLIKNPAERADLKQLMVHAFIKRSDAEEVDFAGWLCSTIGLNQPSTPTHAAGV

[7] = Selectivity interaction (KinomeScan (DiscoverX)) EUB0000092b CDPK1; conditions: at 10 µM
[8] = molecular target: Protein-tyrosine kinase 6 (Homo sapiens, UniProt Q13882); assay: Selectivity interaction (KinomeScan (DiscoverX)) EUB0000092b PTK6; conditions: at 10 µM
[9] = molecular target: Protein kinase C eta type (Homo sapiens) (UniProt P24723); assay: Selectivity interaction (SelectScreen profiling (Invitrogen)) EUB0000607a PRKCH; conditions: at 2 µM
Protein kinase C eta type (Homo sapiens), sequence (P24723 whole entry): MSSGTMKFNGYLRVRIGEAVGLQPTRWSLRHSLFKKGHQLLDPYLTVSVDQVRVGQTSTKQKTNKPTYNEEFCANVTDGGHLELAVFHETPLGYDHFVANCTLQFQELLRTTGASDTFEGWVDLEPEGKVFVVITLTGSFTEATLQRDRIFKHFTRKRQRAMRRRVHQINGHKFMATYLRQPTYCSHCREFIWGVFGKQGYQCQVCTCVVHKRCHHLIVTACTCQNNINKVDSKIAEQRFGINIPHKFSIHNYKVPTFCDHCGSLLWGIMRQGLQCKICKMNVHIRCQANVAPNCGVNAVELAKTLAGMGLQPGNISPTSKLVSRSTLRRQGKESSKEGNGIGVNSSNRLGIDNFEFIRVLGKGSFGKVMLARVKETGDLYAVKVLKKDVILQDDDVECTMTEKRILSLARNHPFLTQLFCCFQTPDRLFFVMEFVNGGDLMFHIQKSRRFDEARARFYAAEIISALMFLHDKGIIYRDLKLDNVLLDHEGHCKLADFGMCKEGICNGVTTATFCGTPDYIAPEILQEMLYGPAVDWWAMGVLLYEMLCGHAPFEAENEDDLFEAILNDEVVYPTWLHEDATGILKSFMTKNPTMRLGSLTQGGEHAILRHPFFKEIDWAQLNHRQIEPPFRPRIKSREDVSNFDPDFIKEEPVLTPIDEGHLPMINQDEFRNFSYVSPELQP

Tyrosine-protein kinase ABL1, sequence (P00519 whole entry): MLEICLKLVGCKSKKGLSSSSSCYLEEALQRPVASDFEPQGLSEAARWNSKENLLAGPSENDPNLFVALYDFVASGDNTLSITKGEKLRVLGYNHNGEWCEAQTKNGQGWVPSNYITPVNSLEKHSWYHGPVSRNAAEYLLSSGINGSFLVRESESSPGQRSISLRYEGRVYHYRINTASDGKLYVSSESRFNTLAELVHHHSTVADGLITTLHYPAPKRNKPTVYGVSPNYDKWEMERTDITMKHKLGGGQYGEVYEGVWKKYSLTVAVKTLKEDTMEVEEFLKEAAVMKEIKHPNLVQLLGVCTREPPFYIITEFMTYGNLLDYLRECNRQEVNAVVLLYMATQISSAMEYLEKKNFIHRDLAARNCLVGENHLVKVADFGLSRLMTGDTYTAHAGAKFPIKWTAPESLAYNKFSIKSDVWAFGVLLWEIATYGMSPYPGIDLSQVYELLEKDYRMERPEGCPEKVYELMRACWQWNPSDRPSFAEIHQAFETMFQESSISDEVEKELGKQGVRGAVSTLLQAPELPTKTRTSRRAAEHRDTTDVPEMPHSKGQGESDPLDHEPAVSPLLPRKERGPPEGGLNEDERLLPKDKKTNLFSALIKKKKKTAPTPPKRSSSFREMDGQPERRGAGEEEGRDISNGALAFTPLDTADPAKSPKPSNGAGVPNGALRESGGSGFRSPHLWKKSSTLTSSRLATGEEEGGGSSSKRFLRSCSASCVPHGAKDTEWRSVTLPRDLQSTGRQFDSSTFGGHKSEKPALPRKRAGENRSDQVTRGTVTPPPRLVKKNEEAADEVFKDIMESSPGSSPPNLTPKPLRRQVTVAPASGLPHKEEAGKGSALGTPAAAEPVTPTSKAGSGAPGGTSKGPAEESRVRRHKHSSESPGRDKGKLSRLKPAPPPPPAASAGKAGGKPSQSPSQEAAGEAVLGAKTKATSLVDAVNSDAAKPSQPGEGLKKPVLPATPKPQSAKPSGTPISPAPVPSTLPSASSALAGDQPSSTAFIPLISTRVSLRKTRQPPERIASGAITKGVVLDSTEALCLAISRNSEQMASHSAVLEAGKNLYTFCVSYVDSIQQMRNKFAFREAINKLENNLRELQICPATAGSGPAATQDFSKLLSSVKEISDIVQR

## CC[C@@H]1[C@H](F)C(=O)N[C@@H]1COc1nccc2cc(C(N)=O)c(OC)cc12 [ZIMLOVISERTIB]
[1]; at 0.01 µM
  % of inhibition: 12.8%
[1]; at 0.04 µM
  % of inhibition: -16%
[1]; at 0.2 µM
  % of inhibition: -25.4%
[1]; at 1 µM
  % of inhibition: -5.3%
[1]; at 5 µM
  % of inhibition: -19.6%
[2]; at 0.01 µM
  % of inhibition: -8.4%
[2]; at 0.04 µM
  % of inhibition: -6%
[2]; at 0.2 µM
  % of inhibition: 0.3%
[2]; at 1 µM
  % of inhibition: -16.3%
[2]; at 5 µM
  % of inhibition: -11.6%

## CCC(=O)N1CC[C@H](Nc2ncnc3c2CN(c2cnc(OC)c(C(F)(F)F)c2)CC3)C1 [LENIOLISIB]
Ephrin type-B receptor 4
  IC50: > 10 µM

## Cn1cc(-n2cnc3c(NCc4nc5cc(Cl)c(Cl)cc5[nH]4)nc(N4CCOCC4)nc32)cn1
[3]
  % of inhibition: -0.366%

## COc1cc(N(C)c2ccnc3ccc(C(F)(F)F)cc23)cc(OC)c1OC
[4]
  % binding: 100%

## Nc1cnc(N2CCc3cc(S(=O)(=O)Nc4c(F)cc(Cl)cc4F)cc(N4CCCC4=O)c32)nc1 [TP-020n]
[5]
  % of control: 100%

## C=CC(=O)Nc1cccc(C(=O)Nc2ccc(Nc3cc(-c4[nH]c(SC)nc4C)ccn3)cc2)c1
[6]; at 1 µM
  % of control: 96%
[6]; at 5 µM
  % of control: 113%

## CCC(=O)N1CCN(c2ccc(-n3c(=O)ccc4cnc5ccc(-c6cnc7ccccc7c6)cc5c43)cc2C(F)(F)F)CC1
[7]
  % of control: 36%
[8]
  % of control: 51%

## CNC(=O)Nc1ccc(-c2nc(N3CC4CCC(C3)O4)c3cnn(C4CCC5(CC4)OCCO5)c3n2)cc1
[9]
  % of inhibition: 14%
